{"source": "patent US20030124127A1", "about": "“Targeting leukemia cells” (priority 2001, published 2003)", "key": {"NB4 cells [1]": {"test_system": "NB4 cells", "assay": "ATRA-induced NB4 cell differentiation (morphology, CD11B/CD16 flow cytometry, NBT reduction test)", "type": "cell-based, human", "conditions": "1 μM ATRA", "method": "(§1) Leukemia cell lines. NB4 cells were a gift (Dr. James R. Downing, St. Jude Children's Research Hospital) and other leukemia cell lines (K562, U937 and HL-60) were purchased from ATCC (Manassas, Va.). All leukemia cell lines were cultured in RPMI 1640 medium plus 10% fetal calf serum. Cells (1×10^6) were treated with or without 1 μM ATRA (Sigma, St. Louis, Mo.) for 12, 24, 48, 72, and 96 hours at 37° C. in a 5% CO2 incubator in darkness. All experiments were repeated three times.\n(§2) Assessment of cell differentiation. ATRA-induced NB4 cell differentiation was evaluated by morphological assessment, by flow cytometry for expression of cell surface antigens related to granulocytic differentiation and maturation such as CD11B/CD18-integrins (Gahmberg C G, Curr. Opin. Cell Biol. 9: 643-650, 1997) and by the nitroblue tetrazolium (NBT) reduction test, which measures myelocyte maturity (Idres N et al., Cancer Res. 61: 700-705, 2001). For cell cycle analysis, the cells were stained with propidium iodide (PI) and analyzed by a fluorescence-activated cell sorting analysis."}, "NB4 cells [2]": {"test_system": "NB4 cells", "assay": "Cell cycle analysis of ATRA-treated NB4 cells (propidium iodide, flow cytometry)", "type": "cell-based, human", "conditions": "1 μM ATRA, 12-96 hrs, PI staining", "method": "as §1, §2"}, "NB4 cells [3]": {"test_system": "NB4 cells", "assay": "RT-PCR analysis of CD52 mRNA in NB4 cells", "type": "cell-based, human", "conditions": "ATRA 12-96 hr, not detectable in untreated cells", "method": "(§3) Reverse transcriptase (RT)-PCR. NB4 cells were cultured and treated with or without ATRA as described above. Some assays were performed using other cell lines including the erythroblastic leukemia cell line K562, the monocytic leukemia cell line U937 and the HL-60 cell line, a human myeloblastic leukemia cell line lacking the t(15; 17) translocation. Total RNA was isolated from the cells and used for CD52 cDNA synthesis by RT-PCR. The cDNA was synthesized in a 20 μl reaction mixture containing 5 μg RNA, 5 mM dNTP, 0.1 μg random primers and 200 U reverse transcriptase, and the mixture was incubated at 42° C. for 1 hr. The cDNA was amplified for 30 cycles with denaturation at 94° C. for 30 seconds, annealing at 56° C. for 30 seconds and extension at 72° C. for 1 min. Amplified products were sequenced and confirmed by comparison with sequence data from GenBank."}, "NB4 cells [4]": {"test_system": "NB4 cells", "assay": "Western blot analysis of CD52 protein in NB4 cells", "type": "cell-based, human", "conditions": "ATRA-treated vs untreated", "method": "Western blot analysis. Cell lysates from control and ATRA-treated NB4 cells were separated on a 4%-20% gradient SDS-polyacrylamide gel and then transferred to PVDF membrane (Millipore, Bedford, Mass.) using a semidry electroblot chamber. The membrane was blocked overnight with 5% dry-milk in Tris-buffered saline and then incubated with anti-CD52 antibody (Serotec, Inc., Raleigh, N.C.) for 1 hour at room temperature. The binding of primary antibody was detected by using peroxidase-coupled second antibody (Sigma). Bound peroxidase was detected by the Super Signal Substrate (Pierce, Rockford, Ill.)."}, "[5]": {"test_system": "monocytic leukemia cell line U937", "assay": "Cell specificity of CD52 induction by ATRA, flow cytometry, U937", "type": "cell-based", "conditions": "U937, ATRA 96 hours", "method": "as §1\n(§4) Flow cytometry. APL cells were treated as described above with 1 μM of ATRA for 24, 48, 72, and 96 hrs, and cell differentiation was evaluated by changes in cell morphology, CD11B and CD18 expression, and the NBT reduction test. ATRA treated cells (1×10^6) were stained with CD18-FITC (Becton Dickinson Biosciences San Jose, Calif.), CD11B-PE, and CD52-FITC antibodies (both from Serotec) following manufacturer's instructions. […] Samples were analyzed in triplicate.\n(§5) Cell specificity of CD52 expression induction by ATRA. To determine the cell specificity of ATRA-induced CD52 expression, other leukemia cell lines were tested and compared with NB4 under assay conditions used for the NB4 cells."}, "[6]": {"test_system": "erythroblastic leukemia line K562", "assay": "Cell specificity of CD52 induction by ATRA, flow cytometry, K562", "type": "cell-based", "conditions": "K562, ATRA 96 hours", "method": "as §1, §4, §5"}, "HL-60 cells": {"test_system": "HL-60 cells", "assay": "Cell specificity of CD52 induction by ATRA, flow cytometry, HL-60", "type": "cell-based, human", "conditions": "HL-60, lacking t(15;17), ATRA 96 hours", "method": "as §1\nas §3, with “The cDNA was amplified for 30 cycles with denaturation at 94° C. for 30 seconds, annealing at 56° C. for 30 seconds and extension at 72° C. for 1 min. Amplified products were sequenced and confirmed by comparison with sequence data from GenBank.” left out\nFlow cytometry. APL cells were treated as described above with 1 μM of ATRA for 24, 48, 72, and 96 hrs, and cell differentiation was evaluated by changes in cell morphology, CD11B and CD18 expression, and the NBT reduction test. […] Samples were analyzed in triplicate. […]"}, "newly diagnosed APL": {"test_system": "newly diagnosed APL", "conditions": "ATRA therapy; cited from earlier work"}, "NB4 cells [7]": {"test_system": "NB4 cells", "assay": "cDNA microarray analysis of ATRA-induced NB4 cell gene expression", "conditions": "96 hr"}, "NB4 cells [8]": {"test_system": "NB4 cells", "assay": "Flow cytometry of CD52, CD11B, CD18 surface expression in NB4 cells"}, "[9]": {"conditions": "cited from earlier work"}, "[10]": {"test_system": "normal and malignant lymphocytes", "conditions": "clinical studies; cited from earlier work"}}, "data": [{"molecule": "CC1=C(/C=C/C(C)=C/C=C/C(C)=C/C(=O)O)C(C)(C)CCC1", "note": "[ATRA, all-trans-retinoic acid]", "values": [{"measurement": "maximal differentiation (CD11B+ and NBT+ cells)", "setting": "NB4 cells [1]; 24 to 96 hrs and later", "result": 85, "unit": "%"}, {"measurement": "morphologic change in NB4 cells", "setting": "NB4 cells [1]; end of 24 hrs", "result": "No obvious morphologic change"}, {"measurement": "CD16 expression", "setting": "NB4 cells [1]; flow cytometry", "result": "failed to express CD16"}, {"measurement": "S-phase cells", "setting": "NB4 cells [2]", "result": "decrease of S-phase cells"}, {"measurement": "expression of CD52 mRNA", "setting": "NB4 cells [3]", "result": "rapidly induced"}, {"measurement": "CD52 protein bands of 21-28 kDa", "setting": "NB4 cells [4]", "result": "only detected in ATRA-treated cells"}, {"measurement": "expression of CD11B", "setting": "[5]", "result": "slightly increased"}, {"measurement": "expression of CD52", "setting": "[5]", "result": "did not affect"}, {"measurement": "CD11B expression", "setting": "[6]", "result": "did not induce"}, {"measurement": "CD52 expression", "setting": "[6]", "result": "did not induce"}, {"measurement": "CD52 up-regulation", "setting": "HL-60 cells", "result": "not up-regulated"}, {"measurement": "complete remission of patients", "setting": "newly diagnosed APL", "result": "up to 85%"}, {"measurement": "CD52 mRNA expression, fold over control", "setting": "NB4 cells [7]; 1 μM ATRA, peak", "result": 6.49, "unit": "fold"}, {"measurement": "expression of gene gf206—339D4, fold of control", "setting": "NB4 cells [7]; ATRA", "result": "more than 58 fold"}, {"measurement": "maximal CD52 surface expression", "setting": "NB4 cells [8]; 1 μM ATRA, 48 to 96 hr", "result": "~90", "unit": "%"}, {"measurement": "cell population co-expressing CD11B and CD52", "setting": "NB4 cells [8]; 96 hr of ATRA exposure", "result": "approximately 80%"}, {"measurement": "cells expressing only CD11B", "setting": "NB4 cells [8]; 96 hr of ATRA exposure", "result": "approximately 10%"}, {"measurement": "cells expressing only CD52", "setting": "NB4 cells [8]; 96 hr of ATRA exposure", "result": "approximately 5%"}, {"measurement": "up-regulation of both CD11B and CD52", "setting": "NB4 cells [8]; NB4, ATRA 96 hours", "result": "robust up-regulation"}]}, {"molecule": "CC1=C(/C=C/C(C)=C/C=C/C(C)=C/CO)C(C)(C)CCC1", "note": "[retinol]", "values": [{"measurement": "solubility in ethanol, methanol, ether, fats, and oil", "setting": "[9]", "result": "soluble"}, {"measurement": "solubility in water or aqueous salt solutions", "setting": "[9]", "result": "practically insoluble"}]}, {"molecule": "CAMPATH-1H: A humanized anti-CD52 monoclonal antibody", "values": [{"measurement": "depletion of normal and malignant lymphocytes in vivo", "setting": "[10]", "result": "extremely effective"}]}]}
